Data published in patent US10976306B2, “Protein degradation inducing tag and usage thereof” (Tokyo University of Science Foundation, priority 2015, dated 2021).
pIC50: −log10 of the molar value. Non-standard residues stand in square brackets, D forms with d. Residues, ends and D or L forms follow the SMILES beside them. Nle = CCCC[C@H](N)C(=O)O

Assays:
[1] = target: T1, E. coli DHFR (Escherichia coli, UniProt P0ABQ4); assay: Thermal shift assay of affinity with forcedly expressed target protein in HeLa cells; type: binding; conditions: bortezomib alone
T1 construct: expressed in transfected cells; host or cells: HeLa cells, transient transfection with pMIR DsRed-IRES-ecDHFR-HA-GFP

[2] = target: β2 (trypsin-like activity) of 20S proteasome (Homo sapiens, UniProt Q99436); assay: 20S proteasome inhibitory activity, AMC fluorescent substrate Bz-VGR-AMC
[3] = target: β5 (chymotrypsin-like activity) of 20S proteasome (Homo sapiens, UniProt P28074); assay: 20S proteasome inhibitory activity, AMC fluorescent substrate Suc-LLVY-AMC
[4] = target: T2, β1 (caspase-like activity) of 20S proteasome (Homo sapiens, UniProt P28072); assay: 20S proteasome inhibitory activity, AMC fluorescent substrate Z-LLE-AMC; type: biochemical
T2 construct: purchased Bioscience (20S Proteasome StressXpress Assay Kit Gold)

| SMILES | interaction with E. coli DHFR [1] | pIC50 [2] | pIC50 [3] | pIC50 ([4]; 20S proteasome 0.1 μg, 30 min preincubation, substrate 100 μM, 1 hour) | inhibitory activity against β1 ([4]; FIGS. 4A, 7A, compared with the original proteasome inhibitor alone) |
| --- | --- | --- | --- | --- | --- |
| CC(C)C[C@H](NC(=O)[C@H](Cc1ccccc1)NC(=O)c1cnccn1)B(O)O [Bortezomib] | did not interact with E. coli DHFR | – | – | – | – |
| CC(C)C[C@H](NC(=O)CNC(=O)c1cc(Cl)ccc1Cl)B(O)O [MLN2238] | – | 5.19 | – | – | – |
| CCCC[C@@H](C=O)NC(=O)[C@H](CC(C)C)NC(=O)[C@H](CC(C)C)NC(C)=O [ALLN] (Ac-Leu-Leu-[Nle]-aldehyde) | – | 5.28 | 5.94 | 4.91 | not significantly inhibited |
